Tests used:
[1] = tested on: traumatically affected peripheral nerves; settings: Wistar rats, B. Wattig et al. 1991; cited from earlier work
[2] = tested on: patients with lumbago; experiment: Clinical study of UMP versus placebo in patients with lumbago; type: in vivo
Experimental: In the following the effectivity of pyrimidine nucleotides for the treatment of affections of the peripheral nervous system as well as for the stimulation of the regeneration of nerves is described by example of uridine-5′-monophosphate (UMP) by example of the indication lumbago. 80 female as well as male patients, aged between 20 and 63 years, were separated randomly into two groups, one was treated with UMP and the other with placebo. The treatment ranged over four consecutive days, whereas the treatment could be terminated ahead of schedule as soon as the symptoms were ameliorating in a way, that a further treatment was needless. Applied was once per day into a vein of the arm an injection solution of 19.349 mg UMP (this corresponds to a mass of 12.834 mg uridine) in 250 ml of physiological sodium chloride solution over a time period of 30 minutes. The comparison group received as placebo only the 250 ml of physiological sodium chloride solution without an active agent. For this clinical study only patients were chosen with a pain intensity of at least 40 mm on the VAS scale (VAS: visual analogue scale). The pain intensity is given on the linear VAS scale in the unit “mm” and was determined by prompting the patients to mark on the linear VAS scale the point, which corresponded to their respective pain intensity. Thereby a non sensible pain was given with the value 0 mm and the possibly maximum pain with the value 100 mm. The pain intensity of the patients was continuously checked, whereas the patients also had to indicate the respective duration of the single pain periods. Table 1 proves, that already after a short time period after the initial injection the pain intensity strongly decreases in the resting and moving state in the case of the UMP patient group. The finger-floor distance represents a measure for the mobility, i.e. for the grade of capability to bend the back, and is given in the unit “cm”, whereas the distance between the finger tip in the case of outstretched arms and the curvature in the case of maximal possible bending of the back was measured.

[3] = decrease in the UMP patient group
[4] = decrease of pain in the UMP patient group, VAS
[5] = difference of decrease, UMP versus placebo group

Row | SMILES | Filament area of nerve filaments (myelin and axon areas) [1] | Presence of myogelosis ([2]; UMP patient group, 24 h after inj., base line 100%) | Pain during resting state ([2]; VAS scale, average of UMP patient group, 24 h after inj., 19.349 mg UMP i.v. once per day, base line 60.3) | Pain during movement ([2]; VAS scale, average of UMP patient group, 24 h after inj., base line 76.1) | Daily duration of pain ([2]; average of UMP patient group, 24 h after inj., base line 15.8) | Finger-floor distance ([2]; average of UMP patient group, 24 h after inj., base line 43.8) | Δ UMP, Daily duration of pain [2, 3] | Δ UMP, Finger-floor distance [2, 3] | Δ UMP, Pain during movement [2, 4] | Δ UMP, Pain during resting state [2, 4] | Δ UMP − Δ Placebo, Daily duration of pain [2, 5] | Δ UMP − Δ Placebo, Finger-floor distance [2, 5] | Δ UMP − Δ Placebo, Pain during movement [2, 5] | Δ UMP − Δ Placebo, Pain during resting state [2, 5] | Absolute values of test parameters (pain, daily duration of pain, finger-floor distance) versus placebo group ([2]; during the further three days) | Decrease in pain compared to placebo patients ([2]; within the initial 24 h after the first injection)
1 | Nc1ccn([C@@H]2O[C@H](COP(=O)(O)O)[C@@H](O)[C@H]2O)c(=O)n1 [CMP, cytidine-5′-monophosphate] | no comparable results | – | – | – | – | – | – | – | – | – | – | – | – | – | – | –
2 | O=c1ccn([C@@H]2O[C@H](COP(=O)(O)O)[C@@H](O)[C@H]2O)c(=O)[nH]1 [UMP, uridine-5′-monophosphate] | no comparable results | 90% | 46.2 mm | 56.9 mm | 10.7 h | 32.5 cm | -4.3 h | −10.1 cm | −17.9 mm | −12.8 mm | -1.4 h | −2.7 cm | −6.8 mm | −3.4 mm | always below the corresponding absolute values for the placebo group | clear decrease in pain

Reference: US20050222078A1, “Use of pyrimidine nucleotides for the treatment of affections of the peripheral nervous system” (priority 2002, published 2005)
